Assays:
isolated rat aorta = settings: in vitro; even after the drug has been removed from the environment of the aortic tissue for 6 hours; cited from earlier work
[1] = Thermogravimetric analysis (TG and TGFTIR); assay type: physicochemical; settings: heated in nitrogen stream at 10° C./min; only CO2 is present
Protocol: Each sample weighing 2 to 5 mg was placed in an aluminum crucible of an apparatus PERKIN ELMER TGS-2 Thermogravimetric System (Perkin-Elmer International, Inc., Rotkreuz, Switzerland) and heated in nitrogen stream at a rate of 10° C./min. The thermogravimetric analysis together with an IR analysis in Fourier transform was carried out according to the following operating modes. Each sample weighing 2 to 5 mg was placed in an aluminum crucible of an apparatus Netzsch Thermomicrobalance TG209 (Netzsch Gerätebau, Seib, Germany) coupled with a spectrometer in Fourier transform BRUKER FTIR Vector 22 (Spectrospin, Fällanden, Switzerland) and heated in nitrogen stream at a rate of 10° C./min.

temperature above which degradation was observed [1]	Molecule	isolated rat aorta response to high K+ (isolated rat aorta)
	COC(=O)C1=C(C)NC(C)=C(C(=O)OC(C)(C)CN(C)CCC(c2ccccc2)c2ccccc2)C1c1cccc([N+](=O)[O-])c1 (centres unmarked) [Lercanidipine, methyl 1,1,N-trimethyl-N-(3,3-diphenylpropyl)-2-aminoethyl 1,4-dihydro-2,6-dimethyl-4-(3-nitrophenyl)pyridine-3,5-dicarboxylate]	attenuated
above 180 °C	lercanidipine hydrochloride-terbutyl methyl ether	
